SMILES strings stand for the structures.

These results are taken from US20220387358A1, “CERAMIDE ANALOG SACLAC MODULATES SPHINGOLIPID LEVELS AND MCL-1 SPLICING TO INDUCE APOPTOSIS IN ACUTE MYELOID LEUKEMIA” (University of Virginia Patent Foundation, priority 2019, published 2022).

In one data set the test system is sphingosine in the liver. Put plainly: Sphingosine in the liver after SACLAC administration. The format is in vivo, Swiss Webster mice.
In the next data set the target is T1, acid ceramidase (AC) (Homo sapiens, UniProt Q13510).
T1 construct: endogenous in cells; host or cells: HL-60/VCR, THP-1 and OCI-AML2 human AML cell lines
T1 sequence (Q13510 143-395 limits assumed): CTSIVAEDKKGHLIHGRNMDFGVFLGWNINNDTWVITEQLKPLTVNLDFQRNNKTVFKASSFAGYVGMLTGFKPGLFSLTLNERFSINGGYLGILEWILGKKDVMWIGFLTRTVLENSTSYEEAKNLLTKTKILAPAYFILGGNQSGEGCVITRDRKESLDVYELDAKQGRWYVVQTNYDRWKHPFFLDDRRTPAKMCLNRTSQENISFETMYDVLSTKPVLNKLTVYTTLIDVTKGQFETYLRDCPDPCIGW
T1 sequence (Q13510 22-142 limits assumed): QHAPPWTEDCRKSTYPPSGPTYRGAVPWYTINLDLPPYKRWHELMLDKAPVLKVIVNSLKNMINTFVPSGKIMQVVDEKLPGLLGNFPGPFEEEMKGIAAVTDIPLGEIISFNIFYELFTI
Description: Acid ceramidase activity assay (RBM14C12 fluorogenic substrate) in human AML cell lines. The format is cell-based. Particulars: SACLAC 2.5 μM, 24-hour treatment. How it is done:
Cells were seeded at 2×10^4 cells per well in 50 μl Acid ceramidase activity was measured at 24 hours using the RBM14C12 fluorogenic substrate as previously described (22,34).

Another data set concerns OCI-AML2 cells. Description: Western blot of SF3B1, Mcl-1S and Mcl-1L protein expression. It is filed as cell-based, human. Particulars: 24 hours. How it is done: (§1) Cells were plated at 2.5×10^5 cells per ml in 6-well plates and treated with drug, vehicle or siRNA at the indicated doses and time points. Cells were harvested, washed with PBS and lysed prior to preparation of protein extracts for western blotting.
More particularly, cells were lysed with RIPA buffer (#R0278, Sigma, St. Louis, Mo., United States of America) containing phosphatase inhibitor cocktails 2 and 3 (Sigma #P5726, #P0044) and protease inhibitor cocktail (#P8340, Sigma, St. Louis, Mo., United States of America). Protein was quantified using a bicinchoninic acid (BCA) protein assay kit (#23225, Pierce, Waltham, Mass., United States of America). Samples were resolved on a Bolt 4-12% SDS-PAGE gel (#NW00082, ThermoFisher Scientific, Waltham, Mass., United States of America) and transferred to PVDF membrane (#170-4274, Bio-Rad Laboratories, Hercules, Calif., United States of America). Antibodies were obtained from Cell Signaling Technology (Danvers, Mass., United States of America) unless indicated otherwise. Primary antibodies used were: Mcl-1 (#5453, RRID #AB 10694494), SF3B1 (#14434, RRID #AB 2798479), β-actin (#3700, RRID #AB_2242334) and AC (BD Biosciences #612302 (San Jose, California, United States of America), RRID #AB_399617). Secondary antibodies used were HRP-linked goat anti-mouse (#7076, RRID #AB_330924) or goat anti-rabbit IgG (#7074, RRID # AB_2099233). Clarity Max Western ECL Substrate (#1705062, Bio-Rad Laboratories, Hercules, Calif., United States of America) was added to visualize relative protein expression by chemiluminescence using the Bio-Rad ChemiDoc MP imaging system (Bio-Rad Laboratories, Hercules, Calif., United States of America). Quantification was done using Bio-Rad ImageLab 6.0.1 software (Bio-Rad Laboratories, Hercules, Calif., United States of America). For quantification, bands were normalized to β-actin as a loading control.

Data set [1] deals with two human AML xenograft mouse models. Description: Leukemic burden across two human AML xenograft mouse models. The format is in vivo. From the text: To assess the efficacy of SACLAC in a transplantable human AML model, two cell line models were used. For the MV4-11 model, 2.5×10^6 luciferase and yellow fluorescent protein (YFP)-expressing MV4-11 cells in HBSS were introduced into 6- to 8-week-old female NSG mice via tail-vein injections. After 10-12 days, engraftment was confirmed using bioluminescence imaging with the IVIS Lumina LT Series III imaging system (PerkinElmer Inc., Waltham, Mass., United States of America). Mice were equally randomized into two groups of three mice and treated with vehicle or SACLAC at 5 mg/kg/day five times per week for 18 total injections. At the end of the treatment, animals were euthanized and peripheral blood was collected for flow cytometry analysis.
For the U937 model, 1×10^4 luciferase and tdTomato-expressing U937 cells in […] were introduced into 6- to 8-week-old female NSG mice via tail-vein injections. After six days, engraftment was confirmed as stated above. Mice were equally randomized into two groups of five mice and treated with vehicle or SACLAC at 5 mg/kg/day five times per week for 15 total injections. Animals were euthanized and bone marrow was collected for flow cytometry analysis.
On the technique in general: In xenograft studies the graft and the host belong to different species.

Data set [2] has as its system THP-1, HL60-VCR and KG1a cell lines. Put plainly: Western blot of SF3B1 and Mcl-1S/L in further cell lines. It is filed as cell-based, human. Particulars: 20 μM SACLAC; 48 hours; all three cell lines. How it is done:
as §1
More particularly, cells were lysed with RIPA buffer (#R0278, Sigma, St. Louis, Mo., United States of America) containing phosphatase inhibitor cocktails 2 and 3 (Sigma #P5726, #P0044) and protease inhibitor cocktail (#P8340, Sigma, St. Louis, Mo., United States of America). Protein was quantified using a bicinchoninic acid (BCA) protein assay kit (#23225, Pierce, Waltham, Mass., United States of America). Samples were resolved on a Bolt 4-12% SDS-PAGE gel (#NW00082, ThermoFisher Scientific, Waltham, Mass., United States of America) and transferred to PVDF membrane (#170-4274, Bio-Rad Laboratories, Hercules, Calif., United States of America). Antibodies were obtained from Cell Signaling Technology (Danvers, Mass., United States of America) unless indicated otherwise. […] Quantification was done using Bio-Rad ImageLab 6.0.1 software (Bio-Rad Laboratories, Hercules, Calif., United States of America). For quantification, bands were normalized to β-actin as a loading control.

Data set [3] can be described thus: Mouse serum SACLAC levels by formulation and route. The format is in vivo. As for the experimental part: More particularly, SACLAC was dissolved in 2-hydroxypropyl-β-cyclodextrin (β-HPCD) (53). In addition, a SACLAC nanoliposome was prepared.

As to `CCCCCCCCCCCCCCC[C@@H](O)[C@H](CO)NC(=O)CCl` [SACLAC, N-[(2S,3R)-1,3-dihydroxyoctadecan-2-yl]2-chloroacetamide], the “time that liver sphingosine levels were reduced after treatment” value with sphingosine in the liver is given as “at least 6 hours”. Further, the results for the “AC activity reduced by” value at acid ceramidase (AC) (HL-60/VCR), on acid ceramidase (AC) (OCI-AML2) and at acid ceramidase (AC) (THP-1) were 98%, 100% and 71%, respectively. For the same molecule, the SF3B1 protein expression result with OCI-AML2 cells (SACLAC) was “reduced”. Moreover, in the data set on OCI-AML2 cells (SACLAC), the “splicing factor SRSF1” value was “not affected”. Further, the “increase in the ratio of Mcl-1S to Mcl-1L” value in the data set on OCI-AML2 cells (increasing doses of SACLAC) was 3 fold. The “upregulation of the Mcl-1S isoform” value with OCI-AML2 cells (increasing doses of SACLAC) was 10 fold. Moreover, the “reduction in leukemic burden” value in data set [1] is 37 to 75%. Besides, in data set [2], the SF3B1 levels entry is recorded as “reduced”. Moreover, the “ratio of Mcl-1S/L” value in data set [2] was “increased”. For the same molecule, the clearance entry in data set [3] (all treatment groups) is “rapidly cleared”. Besides, the serum levels result in data set [3] (free SACLAC in DMSO, i.p.) is “low serum levels”; in data set [3] (β-HPCD, i.v.) it was “improvement”. The molecule also registered a maximum serum level in data set [3] (maximum over the formulations tested) of around 1 µM.
